In article PMC6801448, “The Antioxidant and Antiproliferative Activities of 1,2,3-Triazolyl-L-Ascorbic Acid Derivatives” (International Journal of Molecular Sciences, 2019):
Read-outs that look alike come from different tables or passages of the source.

What was measured:
[1] = DPPH radical scavenging assay; assay type: biochemical
Experimental: Likewise, L-ASA, the 1,2,3-triazole L-ASA derivatives with free C2-OH and C3-OH groups were expected to be potent antioxidants. Therefore, they were tested as radical scavengers by reaction with the stable free radical 2,2-diphenyl-1-picrylhydrazyl (DPPH^•).
Antioxidant capacity of selected compounds was assessed by 2,2-diphenyl-1-picrylhydrazyl assay (DPPH, Sigma Aldrich, Darmstadt, Germany), in which the antioxidant activity of compounds is measured by the reaction between a stable radical of 1,1-diphenyl-2-picylhydrazil (DPPH^•) and a selected compound according to the manufacturer recommendations. Briefly, compounds 4b–4e, 4f–4h, 4k, 4l, 4o, 4p–4s, 4t, 4v, 7c–7f, 7i–7n, 7q, 7p, and 7o were tested at 0.06, 0.12, 0.18, 0.23, 0.25, and 0.28 mM. L-ascorbic acid was used as the reference compound. Absorbance was measured 5 and 10 min after incubation of the compounds with the DPPH reagent. The reduction of DPPH with selected compounds was monitored by measuring the absorbance at a wavelength of 517 nm on the monochromator (Infinite M200 PRO, TECAN, Männedorf, Switzerland).

[2] = system: A549 (lung adenocarcinoma); test: MTT proliferation assay, A549; assay type: cell-based; details: Homo sapiens, 72 h
Experimental: (§1) Human tumor cell lines HeLa (cervical carcinoma), SW620 (colorectal adenocarcinoma, metastatic), A549 (lung adenocarcinoma), MCF−7 (breast adenocarcinoma), CFPAC-1 (pancreatic adenocarcinoma, metastatic), HCT-116 (colorectal carcinoma), and HepG2 (hepatocellular carcinoma), and normal cell lines HFF-1 (foreskin fibroblasts) and WI-38 (immortalized human lung fibroblast), were from the US American Type Culture Collection (ATCC, Manassas, VA, USA). Cells were cultured in a liquid nutrient medium (Dulbecco’s Modified Eagle Medium, LONZA, Basel, Switzerland) supplemented with 10% fetal bovine serum (FBS, Gibco, Grand Island, NY, USA), 2 mM L-glutamine (GIBCO, Grand Island, NY, USA), 100 μg/mL penicillin, and 100 μg/mL streptomycin (LONZA, Basel, Switzerland), in an incubator (NÜVE, Ankara, Turkey), at a humid atmosphere with 5% CO2 at 37 °C. Trypsin/EDTA Solution (Lonza, Basel, Switzerland), was used for cell passaging and cell detachment.
(§2) Adherent cells were seeded on 96 well microtiter plates (Falcon, New York, NY, USA) at a seeding density of 5000 cells per well, added in 150 μL of cell suspension in a nutrient medium. 24 h after seeding, cells were treated with compound 4b–4g, 4i, 4k–4t, 4v, 7c–7g, and 7i–7q dilutions in the range of 0.01 μM to 100 μM. L-ascoric acid (Sigma Aldrich, Darmstadt, Germany) and Carboxyamidotriazole (Sigma Aldrich, Darmstadt, Germany) were used as control compounds. Incubation of the cells with the compounds were performed for 72 h in a 5% CO2, in humid atmosphere at 37 °C. After incubation, nutrient medium was removed and 40 μL of the MTT reagent ([…]-2,5-diphenyltetrazole bromide (Invitrogen, Carlsbad, CA, USA) was added to each well. 3 h after incubation, 160 μL of DMSO (VWR CHEMICALS, Radnor, PA, USA) were added to each well to dissolve the crystals of purple formazane. The absorbance was measured at 570 nm (TECAN SUNRISE Microtiter plate reader (Männedorf, Switzerland). The experimentally measured optical densities (OD) were converted to the PG (percentage of growth), using the formulas according to the protocol assumed by NIH (National Institute of Health). The IC50 values (concentration causing 50% cell growth inhibition) for each compound were calculated by regression analysis of the survival count curve of the concentrations of the tested compounds. The results were processed in Excel 2010 (Microsoft, Redmond, WA, USA).

[3] = system: CFPAC-1 (ductal pancreatic adenocarcinoma); test: MTT proliferation assay, CFPAC-1; assay type: cell-based; details: Homo sapiens, 72 h
Experimental: as §1, §2

[4] = system: HCT-116 (colorectal carcinoma); test: MTT proliferation assay, HCT-116; assay type: cell-based; details: Homo sapiens, 72 h
Experimental: as §1, §2

[5] = system: HeLa (cervical carcinoma); test: MTT proliferation assay, HeLa; assay type: cell-based; details: Homo sapiens, 72 h
Experimental: as §1, §2

[6] = system: HepG2 (hepatocellular carcinoma); test: MTT proliferation assay, HepG2; assay type: cell-based; details: Homo sapiens, 72 h
Experimental: as §1, §2

[7] = system: MCF-7 (breast adenocarcinoma); test: MTT proliferation assay, MCF-7; assay type: cell-based, Human; details: Homo sapiens, MCF7; 72 h, MTT
Experimental: as §1, §2

[8] = system: SW620 (colorectal adenocarcinoma, metastatic); test: MTT proliferation assay, SW620; assay type: cell-based; details: Homo sapiens, SW-620, 72 h
Experimental: as §1, §2

WI-38 (lung fibroblasts) = test: MTT proliferation assay, WI-38; assay type: cell-based; details: Homo sapiens, 72 h, normal lung fibroblasts
Experimental: as §1, §2

[9] = 5 min treatment, read-out: IC50 of DPPH• inhibition, Treatm. 5 min
[10] = 10 min treatment, read-out: IC50 of DPPH• inhibition, Treatm. 10 min

Compound | IC50 [1, 9] | IC50 [1, 10] | IC50 [2] | IC50 [3] | IC50 [4] | IC50 [5] | IC50 [6] | IC50 [7] | IC50 [8] | IC50 (WI-38 (lung fibroblasts)) | melting point
CCCCCCCCCCc1cn(C/C=C2\OC(=O)C(O)=C2O)nn1 [Compound 7n, 6-(4-decyl-1,2,3-triazol-1-il)-4,5-didehydro-5,6-dideoxy-L-ascorbic acid] | 140 µM | 100 µM | > 100 µM | > 100 µM | > 100 µM | > 100 µM | > 100 µM | > 100 µM | > 100 µM | > 100 µM | 169 to 171 °C
O=C1O/C(=C\Cn2cc(CCCCl)nn2)C(O)=C1O [Compound 7p, 6-[4-chloropropyl-1,2,3-triazole-1-yl]-4,5-didehydro-5,6-dideoxy-L-ascorbic acid] | 200 µM | 200 µM | > 100 µM | > 100 µM | > 100 µM | > 100 µM | > 100 µM | > 100 µM | > 100 µM | > 100 µM | 160 to 162 °C
CCCCc1cn(C/C=C2\OC(=O)C(O)=C2O)nn1 [Compound 7m, 6-[4-butyl-1,2,3-triazole-1-yl]-4,5-didehydro-5,6-dideoxy-L-ascorbic acid] | 200 µM | 190 µM | > 100 µM | > 100 µM | > 100 µM | > 100 µM | > 100 µM | > 100 µM | > 100 µM | > 100 µM | 180 to 183 °C
O=C1O[C@H]([C@@H](O)Cn2cc(CSC(=S)N3CCNCC3)nn2)C(O)=C1O [Compound 4v] | 270 ± 10 µM | 270 µM | 98 µM | > 100 µM | > 100 µM | > 100 µM | > 100 µM | 37.3 µM | > 100 µM | > 100 µM | ≥ 250 °C
O=C1O/C(=C\Cn2cc(-c3cccc(O)c3)nn2)C(O)=C1O [Compound 7j, 4,5-didehydro-5,6-dideoxy-6-[4-(3-hydroxyphenyl)-1,2,3-triazole-1-yl]-L-ascorbic acid] |  |  | > 100 µM | > 100 µM | > 100 µM | > 100 µM | > 100 µM | > 100 µM | > 100 µM | > 100 µM | 155 to 157 °C
CCCCCc1ccc(-c2cn(C/C=C3\OC(=O)C(O)=C3O)nn2)cc1 [Compound 7k, 4,5-didehydro-5,6-dideoxy-6-[4-(4-pentylphenyl)-1,2,3-triazole-1-yl]-L-ascorbic acid] |  |  | > 100 µM | > 100 µM | > 100 µM | > 100 µM | > 100 µM | > 100 µM | > 100 µM | > 100 µM | 230 to 232 °C
COc1ccc(-c2cn(C/C=C3\OC(=O)C(O)=C3O)nn2)cc1 [Compound 7g, 4,5-didehydro-5,6-dideoxy-6-[4-(4-methoxyphenyl)-1,2,3-triazole-1-yl]-L-ascorbic acid] | > 280 µM | 260 µM | > 100 µM | > 100 µM | > 100 µM | > 100 µM | > 100 µM | > 100 µM | > 100 µM | > 100 µM | 198 to 199 °C
O=C1O/C(=C\Cn2cc(-c3cc(C(F)(F)F)cc(C(F)(F)F)c3)nn2)C(O)=C1O [Compound 7c, 4,5-didehydro-5,6-dideoxy-(4-(3,5-di-(trifluoromethyl)phenyl)-1,2,3-triazol-1-yl)-L-ascorbic acid] |  |  | > 100 µM | > 100 µM | > 100 µM | > 100 µM | > 100 µM | > 100 µM | > 100 µM | > 100 µM | ≥ 200 °C
O=C1O/C(=C\Cn2cc(-c3cc(F)cc(F)c3)nn2)C(O)=C1O [Compound 7d] | 230 µM | 230 µM | > 100 µM | > 100 µM | > 100 µM | > 100 µM | > 100 µM | > 100 µM | > 100 µM | > 100 µM | ≥ 200 °C
O=c1[nH]cc(F)c(=O)[nH]1 [Compound 5-FU, 5-fluorouracil, reference compound] |  |  | 2.8 µM | 0.14 µM |  | 8.81 µM | 9.04 µM | 0.096 µM | 0.08 µM | 0.94 µM | 
O=C1O/C(=C\Cn2cc(-c3ccc(Br)cc3)nn2)C(O)=C1O [Compound 7e, 6-[4-(4-bromophenyl)-1,2,3-triazole-1-yl]-4,5-didehydro-5,6-dideoxy-L-ascorbic acid] |  |  | > 100 µM | > 100 µM | > 100 µM | > 100 µM | > 100 µM | > 100 µM | > 100 µM | > 100 µM | 219 to 222 °C
O=C1O/C(=C\Cn2cc(CCO)nn2)C(O)=C1O [Compound 7q, 6-[4-(2-hydroxyethyl)-1,2,3-triazole-1-yl]-4,5-didehydro-5,6-dideoxy-L-ascorbic cid] | 70 µM | 70 µM | > 100 µM | > 100 µM | > 100 µM | > 100 µM | > 100 µM | > 100 µM | > 100 µM | > 100 µM | 172 to 173 °C
